Test results as given in patent US4175123A, “Amino-sugar derivatives, process for their preparation and pharmaceutical composition thereof” (Bayer Aktiengesellschaft, priority 1976, dated 1979).

Tests used:
glucosidase [1] = assay: Starch feeding test: postprandial blood sugar after oral starch + glucosidase inhibitor in fasting rats; format: in vivo, rat; settings: for Blood sugar ± standard deviation, 45 minutes: starch control 120 ± 7.9, fasting control 102 ± 6.7; for Blood sugar ± standard deviation, 60 minutes: starch control 118 ± 6.9, fasting control 88 ± 7.4
Protocol: (§1) The in vivo activity of the compound was tested on some examples using the experimental arrangement described in the following text.
(§2) Oral administration of starch or sucrose causes a rise in the blood sugar in warm-blooded animals, provided that the carbohydrates are enzymatically degraded in the small intestine to monosaccharides. The inhibition of their enzymatic hydrolysis by glucosidase inhibitors causes a reduced rise in the blood sugar.
(§3) In order to detect the action of glucosidase inhibitors, 6 fasting rats receive perorally, 1 g of broiled starch or 2.5 g of sucrose/kg in the form of an aqueous suspension or in the form of an aqueous solution (starch and sucrose control respectively). An equal number of rats receive the glucosidase inhibitor in the dose indicated, together with the same amount of the carbohydrate concerned. An equal volume of physiological sodium chloride solution is administered orally to a further six rats (control). After administration of the carbohydrate concerned±glucosidae inhibitor, the postprandial change in blood sugar is measured, at the times indicated, in blood from the postorbital venous plexus in an auto-analyser according to the method of W. S. Hoffmann [J biol. Chem 120, 51 (1937)].

glucosidase [2] = assay: Sucrose feeding test: postprandial blood sugar after oral sucrose + glucosidase inhibitor in fasting rats; format: in vivo, rat
Protocol: as §1, §2, §3

[3] = 10 mg/kg perorally + 2.5 g sucrose/kg, sucrose control 113 ± 6.5, fasting control 61 ± 13
[4] = 10 mg/kg perorally + 2.5 g sucrose/kg, sucrose control 116 ± 9.2, fasting control 65 ± 3.9
[5] = 10 mg/kg perorally + 2.5 g sucrose/kg, sucrose control 104 ± 12, fasting control 66 ± 6.9
[6] = 10 mg/kg perorally + 2.5 g sucrose/kg, sucrose control 123 ± 8.1, fasting control 76 ± 3.7
[7] = 10 mg/kg perorally + 1 g starch/kg, starch control 146 ± 19, fasting control 82 ± 12
[8] = 10 mg/kg perorally + 1 g starch/kg, starch control 144 ± 8.9, fasting control 72 ± 10
[9] = 10 mg/kg perorally + 1 g starch/kg

Structure (SMILES)	Blood sugar ± standard deviation, 15 minutes (glucosidase [2]; [3])	Blood sugar ± standard deviation, 30 minutes (glucosidase [2]; [4])	Blood sugar ± standard deviation, 45 minutes (glucosidase [2]; [5])	Blood sugar ± standard deviation, 60 minutes (glucosidase [2]; [6])	Blood sugar ± standard deviation, 15 minutes (glucosidase [1]; [7])	Blood sugar ± standard deviation, 30 minutes (glucosidase [1]; [8])	Blood sugar ± standard deviation, 45 minutes (glucosidase [1]; [9])	Blood sugar ± standard deviation, 60 minutes (glucosidase [1]; [9])	other results
C[C@H]1O[C@H](O[C@H]2[C@H](O)[C@@H](O)[C@@H](O[C@H]3[C@H](O)[C@@H](O)[C@H](Oc4ccc([N+](=O)[O-])cc4)O[C@@H]3CO)O[C@@H]2CO)[C@H](O)[C@@H](O)[C@@H]1N[C@H]1C=C(CO)[C@@H](O)[C@H](O)[C@H]1O [Compound 1, p-Nitrophenyl-O-{C}-(1→4)-O-α-D-glcp-(1→4)-β-D-glucopyranoside]	–	–	–	–	–	–	–	–	Blood sugar ± standard deviation, 15 minutes (glucosidase [1]; 0.86 mg/kg perorally + 1 g starch/kg, starch control 131 ± 7.2, fasting control 60 ± 4.2): 93 ± 6.4 mg/dL; Blood sugar ± standard deviation, 30 minutes (glucosidase [1]; 0.86 mg/kg perorally + 1 g starch/kg, starch control 113 ± 9.2, fasting control 62 ± 3.4): 84 ± 12 mg/dL; Blood sugar ± standard deviation, 15 minutes (glucosidase [2]; 0.86 mg/kg perorally + 2.5 g sucrose/kg, sucrose control 128 ± 8.0, fasting control 60 ± 4.6): 103 ± 6.4 mg/dL; Blood sugar ± standard deviation, 30 minutes (glucosidase [2]; 0.86 mg/kg perorally + 2.5 g sucrose/kg, sucrose control 133 ± 8.7, fasting control 64 ± 3.7): 110 ± 10 mg/dL; Blood sugar ± standard deviation, 45 minutes (glucosidase [2]; 0.86 mg/kg perorally + 2.5 g sucrose/kg, sucrose control 134 ± 6.1, fasting control 73 ± 7.1): 108 ± 13 mg/dL; Blood sugar ± standard deviation, 60 minutes (glucosidase [2]; 0.86 mg/kg perorally + 2.5 g sucrose/kg, sucrose control 119 ± 10, fasting control 66 ± 4.2): 107 ± 11 mg/dL
C[C@H]1O[C@H](O[C@H]2[C@H](O)[C@@H](O)[C@@H](O[C@@H]([C@H](O)[C@@H](O)CO)[C@H](O)CO)O[C@@H]2CO)[C@H](O)[C@@H](O)[C@@H]1N[C@H]1C=C(CO)[C@@H](O)[C@H](O)[C@H]1O [Compound 22]	–	–	–	–	–	–	–	–	Blood sugar ± standard deviation, 15 minutes (glucosidase [2]; 1.54 mg/kg perorally + 2.5 g sucrose/kg, sucrose control 134 ± 13, fasting control 71 ± 3.7): 80 ± 3.7 mg/dL; Blood sugar ± standard deviation, 30 minutes (glucosidase [2]; 1.54 mg/kg perorally + 2.5 g sucrose/kg, sucrose control 116 ± 20, fasting control 70 ± 5.3): 79 ± 5.2 mg/dL; Blood sugar ± standard deviation, 45 minutes (glucosidase [2]; 1.54 mg/kg perorally + 2.5 g sucrose/kg, sucrose control 125 ± 8.6, fasting control 77 ± 5.5): 86 ± 4.5 mg/dL; Blood sugar ± standard deviation, 60 minutes (glucosidase [2]; 1.54 mg/kg perorally + 2.5 g sucrose/kg, sucrose control 112 ± 15, fasting control 78 ± 7.3): 86 ± 11 mg/dL
C[C@H]1O[C@H](O[C@H]2[C@H](O)[C@@H](O)[C@@H](O[C@H]3[C@H](O)[C@@H](O)[C@H](Oc4cccc(O)c4)O[C@@H]3CO)O[C@@H]2CO)[C@H](O)[C@@H](O)[C@@H]1N[C@H]1C=C(CO)[C@@H](O)[C@H](O)[C@H]1O [Compound 3, m-Hydroxyphenyl-O-{C}-(1→4)-O-α-D-glcp-(1→4)-β-D- glucopyranoside]	–	–	–	–	–	–	–	–	Blood sugar ± standard deviation, 15 minutes (glucosidase [1]; 0.92 mg/kg perorally + 1 g starch/kg, starch control 131 ± 7.2, fasting control 60 ± 4.2): 89 ± 8.0 mg/dL; Blood sugar ± standard deviation, 30 minutes (glucosidase [1]; 0.92 mg/kg perorally + 1 g starch/kg, starch control 113 ± 9.2, fasting control 62 ± 3.4): 97 ± 13 mg/dL; Blood sugar ± standard deviation, 15 minutes (glucosidase [2]; 0.92 mg/kg perorally + 2.5 g sucrose/kg, sucrose control 128 ± 8.0, fasting control 60 ± 4.6): 97 ± 10 mg/dL; Blood sugar ± standard deviation, 30 minutes (glucosidase [2]; 0.92 mg/kg perorally + 2.5 g sucrose/kg, sucrose control 133 ± 8.7, fasting control 64 ± 3.7): 108 ± 4.2 mg/dL; Blood sugar ± standard deviation, 45 minutes (glucosidase [2]; 0.92 mg/kg perorally + 2.5 g sucrose/kg, sucrose control 134 ± 6.1, fasting control 73 ± 7.1): 112 ± 15 mg/dL; Blood sugar ± standard deviation, 60 minutes (glucosidase [2]; 0.92 mg/kg perorally + 2.5 g sucrose/kg, sucrose control 119 ± 10, fasting control 66 ± 4.2): 111 + 11 mg/dl
CCO[C@@H]1O[C@H](CO)[C@@H](O[C@H]2O[C@H](C)[C@@H](N[C@H]3C=C(CO)[C@@H](O)[C@H](O)[C@H]3O)[C@H](O)[C@H]2O)[C@H](O)[C@H]1O [Compound 15, Ethyl-O-{C}-(1→4)-β-D-glucopyranoside]	80 ± 6.1 mg/dL	83 ± 9.4 mg/dL	87 ± 4.8 mg/dL	94 ± 13 mg/dL	–	–	–	–	–
C[C@H]1O[C@H](O[C@H]2[C@H](O)[C@@H](O)[C@H](Oc3ccccc3)O[C@@H]2CO)[C@H](O)[C@@H](O)[C@@H]1N[C@H]1C=C(CO)[C@@H](O)[C@H](O)[C@H]1O [Compound 13, Phenyl-O-C-(1→4)-β-D-glucopyranoside]	79 ± 6.8 mg/dL	80 ± 5.4 mg/dL	85 ± 16 mg/dL	86 ± 2.0 mg/dL	70 ± 8.3 mg/dL	40 ± 6.8 mg/dL	89 ± 9.0 mg/dL	100 ± 4.6 mg/dL	–
C[C@H]1O[C@H](O[C@H]2[C@H](O)[C@@H](O)[C@@H](O[C@H]3[C@H](O)[C@@H](O)[C@H](Oc4ccccc4)O[C@@H]3CO)O[C@@H]2CO)[C@H](O)[C@@H](O)[C@@H]1N[C@H]1C=C(CO)[C@@H](O)[C@H](O)[C@H]1O [Compound 2, Phenyl-O-{C}-(1→4)-O-α-D-glcp-(1→4)-β-D-glucopyranoside]	79 ± 4.1 mg/dL	86 ± 10 mg/dL	74 ± 7.2 mg/dL	71 ± 15 mg/dL	102 ± 10 mg/dL	73 ± 9.1 mg/dL	100 ± 6.5 mg/dL	108 ± 9.3 mg/dL	–
COC(=O)c1ccc(O[C@@H]2O[C@H](CO)[C@@H](O[C@H]3O[C@H](CO)[C@@H](O[C@H]4O[C@H](C)[C@@H](N[C@H]5C=C(CO)[C@@H](O)[C@H](O)[C@H]5O)[C@H](O)[C@H]4O)[C@H](O)[C@H]3O)[C@H](O)[C@H]2O)cc1 [Compound 6, p-Carbomethoxyphenyl-O-{C}-(1→4)-O-α-D-glcp-(1→5)-β-D-glucopyranoside]	–	–	–	–	–	–	–	–	Blood sugar ± standard deviation, 15 minutes (glucosidase [1]; 0.78 mg/kg perorally + 1 g starch/kg, starch control 131 ± 7.2, fasting control 60 ± 4.2): 110 ± 6.1 mg/dL; Blood sugar ± standard deviation, 30 minutes (glucosidase [1]; 0.78 mg/kg perorally + 1 g starch/kg, starch control 113 ± 9.2, fasting control 62 ± 3.4): 105 ± 10 mg/dL; Blood sugar ± standard deviation, 15 minutes (glucosidase [2]; 0.78 mg/kg perorally + 2.5 g sucrose/kg, sucrose control 128 ± 8.0, fasting control 60 ± 4.6): 96 ± 15 mg/dL; Blood sugar ± standard deviation, 30 minutes (glucosidase [2]; 0.78 mg/kg perorally + 2.5 g sucrose/kg, sucrose control 133 ± 8.7, fasting control 64 ± 3.7): 100 ± 3.4 mg/dL; Blood sugar ± standard deviation, 45 minutes (glucosidase [2]; 0.78 mg/kg perorally + 2.5 g sucrose/kg, sucrose control 134 ± 6.1, fasting control 73 ± 7.1): 106 ± 18 mg/dL; Blood sugar ± standard deviation, 60 minutes (glucosidase [2]; 0.78 mg/kg perorally + 2.5 g sucrose/kg, sucrose control 119 ± 10, fasting control 66 ± 4.2): 117 ± 6.5 mg/dL
C[C@H]1O[C@H](O[C@H]2[C@H](O)[C@@H](O)[C@H](OCc3ccccc3)O[C@@H]2CO)[C@H](O)[C@@H](O)[C@@H]1N[C@H]1C=C(CO)[C@@H](O)[C@H](O)[C@H]1O [Compound 20, Benzyl-O-{C}-(1→4)-β-D-glucopyranoside]	83 ± 20 mg/dL	85 ± 8.3 mg/dL	73 ± 8.5 mg/dL	69 ± 9.3 mg/dL	87 ± 12 mg/dL	83 ± 13 mg/dL	99 ± 17 mg/dL	111 ± 5.6 mg/dL	–
COC(=O)c1cccc(O[C@@H]2O[C@H](CO)[C@@H](O[C@H]3O[C@H](CO)[C@@H](O[C@H]4O[C@H](C)[C@@H](N[C@H]5C=C(CO)[C@@H](O)[C@H](O)[C@H]5O)[C@H](O)[C@H]4O)[C@H](O)[C@H]3O)[C@H](O)[C@H]2O)c1 [Compound 4, m-Carbomethoxyphenyl-O-{C}-(1→4)-O-α-D-glcp-(1→4)-β-D-glucopyranoside]	–	–	–	–	–	–	–	–	Blood sugar ± standard deviation, 15 minutes (glucosidase [1]; 1.56 mg/kg perorally + 1 g starch/kg, starch control 131 ± 7.2, fasting control 60 ± 4.2): 99 ± 8.1 mg/dL; Blood sugar ± standard deviation, 30 minutes (glucosidase [1]; 1.56 mg/kg perorally + 1 g starch/kg, starch control 113 ± 9.2, fasting control 62 ± 3.4): 97 ± 10 mg/dL; Blood sugar ± standard deviation, 15 minutes (glucosidase [2]; 1.56 mg/kg perorally + 2.5 g sucrose/kg, sucrose control 128 ± 8.0, fasting control 60 ± 4.6): 95 ± 7.0 mg/dL; Blood sugar ± standard deviation, 30 minutes (glucosidase [2]; 1.56 mg/kg perorally + 2.5 g sucrose/kg, sucrose control 133 ± 8.7, fasting control 64 ± 3.7): 112 ± 5.5 mg/dL; Blood sugar ± standard deviation, 45 minutes (glucosidase [2]; 1.56 mg/kg perorally + 2.5 g sucrose/kg, sucrose control 134 ± 6.1, fasting control 73 ± 7.1): 104 ± 6.7 mg/dL; Blood sugar ± standard deviation, 60 minutes (glucosidase [2]; 1.56 mg/kg perorally + 2.5 g sucrose/kg, sucrose control 119 ± 10, fasting control 66 ± 4.2): 115 ± 7.0 mg/dL
